Target: T1, human M2 receptor (Homo sapiens, UniProt P08172)
T1 construct: expressed in transfected cells; host or cells: CHO-DUKX (CHO-DUKX-M2-GIRK)
T1 sequence (P08172 1-466): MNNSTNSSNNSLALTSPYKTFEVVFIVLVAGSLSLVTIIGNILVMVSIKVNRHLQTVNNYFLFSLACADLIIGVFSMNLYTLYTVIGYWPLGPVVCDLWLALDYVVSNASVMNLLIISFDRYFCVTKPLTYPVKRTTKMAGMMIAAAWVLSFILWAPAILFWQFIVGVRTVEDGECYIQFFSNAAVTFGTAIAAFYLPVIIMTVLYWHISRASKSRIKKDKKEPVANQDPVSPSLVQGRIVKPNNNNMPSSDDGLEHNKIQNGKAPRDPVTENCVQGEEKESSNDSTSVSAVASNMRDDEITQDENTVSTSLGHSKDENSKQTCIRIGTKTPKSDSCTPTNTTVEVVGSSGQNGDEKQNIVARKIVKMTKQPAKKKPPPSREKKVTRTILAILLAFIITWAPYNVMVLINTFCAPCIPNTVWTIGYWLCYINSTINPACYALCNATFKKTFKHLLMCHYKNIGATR
Experiment: Functional M2-GIRK1/4 activation test: allosteric potency (EC50) and efficiency at EC20 acetylcholine
Type: cell-based
Conditions: CHO-DUKX-M2-GIRK cells; for EC50: voltage-sensitive dye, acetylcholine at EC20, in some cases mean of two or more determinations; for Efficiency / Emax: boosting of the acetylcholine effect at EC20 acetylcholine concentration
Outline: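 CHO-DUKX cells stably expressing human M2 and GIRK1/4; membrane potential tracked with voltage-sensitive dye at room temperature. Compound added 50 s before acetylcholine at its EC20, then hyperpolarization read 60 s. EC50 (allosteric potency) and efficiency (boost of EC20 ACh effect) from 4-parameter Hill fit.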

| EC50 | Efficiency | Emax | SMILES |
| --- | --- | --- | --- |
| 1.5 nM | 99% | – | CC(C)(C)C(NC(=O)c1cn(-c2c(F)cc(F)cc2F)c2nc(N3CC(CO)(CO)C3)c(F)cc2c1=O)C(F)(F)C(F)(F)F (single isomer, unassigned) [Example 216, 7-[3,3-bis(hydroxymethyl)azetidin-1-yl]-6-fluoro-4-oxo-N-[1,1,1,2,2-pentafluoro-4,4-dimethylpentan-3-yl]-1-(2,4,6-trifluorophenyl)-1,4-dihydro-1,8-naphthyridine-3-carboxamide] |
| 550 nM | 61% | – | O=C(NCC(F)(F)F)c1cn(-c2c(F)cc(F)cc2Cl)c2nc(N3C[C@@H](O)[C@H](O)C3)c(F)cc2c1=O (single isomer, unassigned) [Example 222] |
| 26 nM | 86% | – | O=C(NCC(F)(F)F)c1cn(-c2c(F)cc(F)cc2Cl)c2nc(N3C[C@@H](O)[C@H](O)C3)c(F)cc2c1=O (single isomer, unassigned) [Example 223] |
| 110 nM | – | 82% | C[C@H](NC(=O)c1cn(-c2c(F)cc(F)cc2Cl)c2nc(N3C[C@@H](O)[C@H](O)C3)c(F)cc2c1=O)C(F)(F)F (single isomer, unassigned) [Example 225] |
| 260 nM | 67% | – | C[C@@H](NC(=O)c1cn(-c2c(F)cc(F)cc2Cl)c2nc(N3C[C@@H](O)[C@H](O)C3)c(F)cc2c1=O)C(F)(F)F (single isomer, unassigned) [Example 229] |
| 7 nM | – | 100% | CC(NC(=O)c1cn(-c2c(F)cc(F)cc2F)c2nc(N3CC[C@H](O)C3)c(Br)cc2c1=O)C(F)(F)C(F)(F)F (single isomer, unassigned) [Example 232] |

More lines, now with the values behind:

| SMILES | EC50 | Efficiency | Emax |
| --- | --- | --- | --- |
| O=C(N[C@@H](C1CC1)C(F)(F)F)c1cn(-c2c(F)cccc2F)c2nc(N3C[C@@H](O)[C@H](O)C3)c(F)cc2c1=O [Example 2, N-[(1S)-1-Cyclopropyl-2,2,2-trifluoroethyl]-1-(2,6-difluorophenyl)-7-[(3R,4R)-3,4-dihydroxypyrrolidin-1-yl]-6-fluoro-4-oxo-1,4-dihydro-1,8-naphthyridine-3-carboxamide] | 35.5 nM | – | 96% |
| CC[C@H](NC(=O)c1cn(-c2c(F)cccc2F)c2nc(N3C[C@@H](O)[C@H](O)C3)c(F)cc2c1=O)C(F)(F)F [Example 3, 1-(2,6-Difluorophenyl)-7-[(3R,4R)-3,4-dihydroxypyrrolidin-1-yl]-6-fluoro-4-oxo-N-[(2S)-1,1,1-trifluorobutan-2-yl]-1,4-dihydro-1,8-naphthyridine-3-carboxamide] | 38 nM | – | 97% |
| CC[C@H](NC(=O)c1cn(-c2c(F)cccc2F)c2nc(N(C)CCO)c(F)cc2c1=O)C(F)(F)F [Example 4, 1-(2,6-Difluorophenyl)-6-fluoro-7-[(2-hydroxyethyl)(methyl)amino]-4-oxo-N-[(2S)-1,1,1-trifluorobutan-2-yl]-1,4-dihydro-1,8-naphthyridine-3-carboxamide] | 38 nM | – | 89% |
| O=C(NC12CC(C1)C2)c1cn(-c2c(F)cccc2F)c2nc(N3C[C@@H](O)[C@H](O)C3)c(F)cc2c1=O [Example 5, N-(Bicyclo[1.1.1]pent-1-yl)-1-(2,6-difluorophenyl)-7-[(3R,4R)-3,4-dihydroxypyrrolidin-1-yl]-6-fluoro-4-oxo-1,4-dihydro-1,8-naphthyridine-3-carboxamide] | 69 nM | – | 99% |
| COC[C@@H](NC(=O)c1cn(-c2c(F)cc(F)cc2F)c2nc(N3C[C@@H](O)[C@H](O)C3)c(F)cc2c1=O)C(C)C [Example 17, 7-[(3R,4R)-3,4-dihydroxypyrrolidin-1-yl]-6-fluoro-N-[(2S)-1-methoxy-3-methylbutan-2-yl]-4-oxo-1-(2,4,6-trifluorophenyl)-1,4-dihydro-1,8-naphthyridine-carboxamide] | 79.5 nM | – | 83% |

Reference: patent publication US11472803B2, “7-substituted 1-aryl-naphthyridine-3-carboxylic acid amides and use thereof” (Bayer Aktiengesellschaft, priority 2016, dated 2022)
